From paper PMC9950431, “A bivalent remipede toxin promotes calcium release via ryanodine receptor activation” (Nature Communications, 2023)
No end group written: not given here.

How the values were obtained:
[1] = molecular target: T1, RyR1 (Oryctolagus cuniculus, UniProt P11716); details: cited from earlier work
T1 construct: skeletal SR vesicles were isolated from the back and leg muscles of mature female New Zealand white rabbits; from tissue; host or cells: rabbit back and leg skeletal muscle, sarcoplasmic reticulum vesicles
Experimental: Electrophysiology experiments were carried out to determine the potency of each peptide. […] It is known that the activity of I ...

[2] = molecular target: T2, ryanodine receptor (Oryctolagus cuniculus, UniProt P11716); test: Single channel recording, exposure to peptide (sheet "Supp Fig 11"; RyR isoform not given); type: biochemical; details: IpTxA; combined average 100pM, 1nM and 5nM; 7 listed values; sem 0.460531; t-test 3.72E-02; control = 1
T2 construct: skeletal SR vesicles were isolated from the back and leg muscles of mature female New Zealand white rabbits; from tissue; host or cells: rabbit back and leg skeletal muscle, sarcoplasmic reticulum vesicles
Excerpt: Supplement 41467_2023_36579_MOESM6_ESM.xlsx, sheet "Supp Fig 11" | column: mean Tc; mean To; mean Po; rel Tc; rel To; rel Po

[3] = test system: sarcoplasmic reticulum (SR) in mouse extensor digitorum longus (EDL) fibers; test: SR Ca2+ leak in mechanically-skinned EDL muscle fibers (total SR Ca2+ content, [CaT]SR, after 1 min leak); type: cell-based, mouse (C57/Bl6)
Excerpt: All experiments were approved by The University of Queensland Animal Ethics Committees. Male and female C57/Bl6 2–6-month-old mice were sacrificed by asphyxiation via CO2 exposure and the EDL muscles were rapidly excised. The EDL was pinned at resting length in a petri dish lined with Sylgard 184 (Dow Corning, Midland, MI) and immersed in paraffin oil (Ajax Chemicals, Sydney, Australia). Segments of individual fibers were mechanically skinned using jeweler’s forceps and pinned out unstretched under oil[37]–[39]. The skinned fiber was then mounted at 120% of resting length on a force transducer (Myotronic UG, Heidelberg, Germany) before transfer to a 2-ml Perspex bath containing standard K^+-based solution that broadly mimics the intracellular milieu. […] All chemicals were purchased from Sigma-Aldrich (St Louis, MO, USA) unless specified otherwise.
Variations of the standard solution were prepared. To deplete the caffeine releasable Ca^2+ (“full release solution”), 30 mM caffeine was added, [Mg^2+] was lowered to 0.05 mM (total Mg^2+ of 2.1 mM) and free EGTA was adjusted to 0.5 mM (pCa 8.5) to chelate released Ca^2+. To measure the maximum force produced by the skinned fiber, all HDTA was replaced by EGTA (relaxing solution) or CaEGTA (maximum Ca^2+ activating solution). The relaxing solution contained 50 mM EGTA and no added Ca^2+ (pCa > 9) and the maximum Ca^2+-activating solution contained 49.5 mM Ca^2+ (pCa 4.7), with total Mg^2+ of 10.3 and 8.1 mM, respectively, to maintain the free [Mg^2+] at 1 mM. A “leak solution” was also prepared, where [Mg^2+] set at 0.1 mM (total Mg^2+ of 3.4 mM) to increase the PO of RyR and with 2 mM EGTA (pCa ~8.5) to chelate leaky Ca^2+ from the SR. […] The BAPTA solution used to pre-equilibrate fibers before lysing was similar to the standard K-HDTA solution but EGTA was replaced with 0.1–1.6 mM BAPTA[37],[39].
The skinned fiber was then equilibrated for 20 s in a solution with a set [BAPTA] before being placed in a freshly triturated emulsion of Triton X-100 in paraffin oil (TX–oil) (10% v/v). The Ca^2+ released upon the membrane lysing rapidly binds to the known amount of BAPTA present within the fiber and to other sites, predominantly troponin C (TnC). The pre-equilibrating [BAPTA] was chosen such that the fiber produced a finite, non-maximal force response upon lysis. Pre-treatment of the fiber with “full release solution” allowed the non-SR Ca^2+ content of the skinned fiber to be assayed. The total amount of Ca^2+ present in the fiber could be calculated from the [BAPTA] in the equilibration solution and the magnitude of the force response. Data are presented as mean ± SD, with n denoting the number of fibers examined. Statistical significance (p < 0.05) was determined with One-way ANOVA.

[4] = molecular target: T1, RyR1; test: Single channel electrophysiology of RyR1 channels inserted into lipid bilayers (exposure to peptide); type: biochemical, New Zealand white rabbit (skeletal SR); details: +40 mV
Experimental: Cardiac SR was prepared from mature female crossbred sheep hearts, and skeletal SR vesicles were isolated from the back and leg muscles of mature female New Zealand white rabbits[29],[54] with approval from the ANU Animal Experiment Ethics Committee Protocol Number A2015/35. […] Solutions for vesicle incorporation contained (mM): cis 230 caesium methanesulfonate (CsMS); 20 CsCl; 1 CaCl2 and 10 […] (TES) pH 7.4 and trans 30 CsMS; 20 CsCl; 1 CaCl2 10 TES; pH 7.4. […] Following incorporation, 200 mM CsMS was added to the trans solution and the cis solution exchanged with recording solution containing (mM): 230 CsMS; 20 CsCl; 0.001 CaCl2;10 TES and pH 7.4, with [Ca^2+] set by a [BAPTA] determined using a Ca^2+ electrode. The cytoplasmic and luminal solutions contained 1 μM and 1 mM Ca^2+ respectively, with symmetrical 250/250 mM CsMS. Bilayer voltage was switched between +40 mV and −40 mV (cytoplasmic voltage relative to grounded luminal solution) every 30 s. The activity of the RyR channels used here included 1 µM Ca^2+ in the cytoplasmic solution and 1 mM Ca^2+ in the luminal solution[29],[55]. Electrophysiology experiments were analysed using Channel 2 (P.W. Gage, M. Smith, Australian National University) and Channel 3 (N.W. Laver, University of Newcastle, Australia) software, available from the authors upon request. Statistical analyses were performed using Microsoft Excel (Office 365). […] Following most incorporation events, a single channel only was active in the bilayer and channel open probability (Po), mean open time (To), mean closed time (Tc) and open event frequency (Fo) were measured. When 2–4 channels were active in a bilayer, PO was approximated from the fractional mean current (I’F), i.e., mean current divided by maximum current. I’F is equal to PO in a single channel and indicates the average PO of multiple channels in a bilayer. […] Experiments at UN also included a minority of multi-channel experiments. The bilayer rigs, solution composition, source of channels, data acquisition and analyses methods were all identical.
Statistical analysis of single channel data was performed using Excel spreadsheets and embedded Students t-test functions or a sign test as indicated in the graphs in Figs. 1 and 3.

[5] = test system: RyR1; parameters: method as in PMID 21323602; details: cited from earlier work
[6] = test system: RyR2; parameters: method as in PMID 21323602; details: cited from earlier work
[7] = test system: TRPV1; details: cited from earlier work

T1 sequence (P11716 whole entry): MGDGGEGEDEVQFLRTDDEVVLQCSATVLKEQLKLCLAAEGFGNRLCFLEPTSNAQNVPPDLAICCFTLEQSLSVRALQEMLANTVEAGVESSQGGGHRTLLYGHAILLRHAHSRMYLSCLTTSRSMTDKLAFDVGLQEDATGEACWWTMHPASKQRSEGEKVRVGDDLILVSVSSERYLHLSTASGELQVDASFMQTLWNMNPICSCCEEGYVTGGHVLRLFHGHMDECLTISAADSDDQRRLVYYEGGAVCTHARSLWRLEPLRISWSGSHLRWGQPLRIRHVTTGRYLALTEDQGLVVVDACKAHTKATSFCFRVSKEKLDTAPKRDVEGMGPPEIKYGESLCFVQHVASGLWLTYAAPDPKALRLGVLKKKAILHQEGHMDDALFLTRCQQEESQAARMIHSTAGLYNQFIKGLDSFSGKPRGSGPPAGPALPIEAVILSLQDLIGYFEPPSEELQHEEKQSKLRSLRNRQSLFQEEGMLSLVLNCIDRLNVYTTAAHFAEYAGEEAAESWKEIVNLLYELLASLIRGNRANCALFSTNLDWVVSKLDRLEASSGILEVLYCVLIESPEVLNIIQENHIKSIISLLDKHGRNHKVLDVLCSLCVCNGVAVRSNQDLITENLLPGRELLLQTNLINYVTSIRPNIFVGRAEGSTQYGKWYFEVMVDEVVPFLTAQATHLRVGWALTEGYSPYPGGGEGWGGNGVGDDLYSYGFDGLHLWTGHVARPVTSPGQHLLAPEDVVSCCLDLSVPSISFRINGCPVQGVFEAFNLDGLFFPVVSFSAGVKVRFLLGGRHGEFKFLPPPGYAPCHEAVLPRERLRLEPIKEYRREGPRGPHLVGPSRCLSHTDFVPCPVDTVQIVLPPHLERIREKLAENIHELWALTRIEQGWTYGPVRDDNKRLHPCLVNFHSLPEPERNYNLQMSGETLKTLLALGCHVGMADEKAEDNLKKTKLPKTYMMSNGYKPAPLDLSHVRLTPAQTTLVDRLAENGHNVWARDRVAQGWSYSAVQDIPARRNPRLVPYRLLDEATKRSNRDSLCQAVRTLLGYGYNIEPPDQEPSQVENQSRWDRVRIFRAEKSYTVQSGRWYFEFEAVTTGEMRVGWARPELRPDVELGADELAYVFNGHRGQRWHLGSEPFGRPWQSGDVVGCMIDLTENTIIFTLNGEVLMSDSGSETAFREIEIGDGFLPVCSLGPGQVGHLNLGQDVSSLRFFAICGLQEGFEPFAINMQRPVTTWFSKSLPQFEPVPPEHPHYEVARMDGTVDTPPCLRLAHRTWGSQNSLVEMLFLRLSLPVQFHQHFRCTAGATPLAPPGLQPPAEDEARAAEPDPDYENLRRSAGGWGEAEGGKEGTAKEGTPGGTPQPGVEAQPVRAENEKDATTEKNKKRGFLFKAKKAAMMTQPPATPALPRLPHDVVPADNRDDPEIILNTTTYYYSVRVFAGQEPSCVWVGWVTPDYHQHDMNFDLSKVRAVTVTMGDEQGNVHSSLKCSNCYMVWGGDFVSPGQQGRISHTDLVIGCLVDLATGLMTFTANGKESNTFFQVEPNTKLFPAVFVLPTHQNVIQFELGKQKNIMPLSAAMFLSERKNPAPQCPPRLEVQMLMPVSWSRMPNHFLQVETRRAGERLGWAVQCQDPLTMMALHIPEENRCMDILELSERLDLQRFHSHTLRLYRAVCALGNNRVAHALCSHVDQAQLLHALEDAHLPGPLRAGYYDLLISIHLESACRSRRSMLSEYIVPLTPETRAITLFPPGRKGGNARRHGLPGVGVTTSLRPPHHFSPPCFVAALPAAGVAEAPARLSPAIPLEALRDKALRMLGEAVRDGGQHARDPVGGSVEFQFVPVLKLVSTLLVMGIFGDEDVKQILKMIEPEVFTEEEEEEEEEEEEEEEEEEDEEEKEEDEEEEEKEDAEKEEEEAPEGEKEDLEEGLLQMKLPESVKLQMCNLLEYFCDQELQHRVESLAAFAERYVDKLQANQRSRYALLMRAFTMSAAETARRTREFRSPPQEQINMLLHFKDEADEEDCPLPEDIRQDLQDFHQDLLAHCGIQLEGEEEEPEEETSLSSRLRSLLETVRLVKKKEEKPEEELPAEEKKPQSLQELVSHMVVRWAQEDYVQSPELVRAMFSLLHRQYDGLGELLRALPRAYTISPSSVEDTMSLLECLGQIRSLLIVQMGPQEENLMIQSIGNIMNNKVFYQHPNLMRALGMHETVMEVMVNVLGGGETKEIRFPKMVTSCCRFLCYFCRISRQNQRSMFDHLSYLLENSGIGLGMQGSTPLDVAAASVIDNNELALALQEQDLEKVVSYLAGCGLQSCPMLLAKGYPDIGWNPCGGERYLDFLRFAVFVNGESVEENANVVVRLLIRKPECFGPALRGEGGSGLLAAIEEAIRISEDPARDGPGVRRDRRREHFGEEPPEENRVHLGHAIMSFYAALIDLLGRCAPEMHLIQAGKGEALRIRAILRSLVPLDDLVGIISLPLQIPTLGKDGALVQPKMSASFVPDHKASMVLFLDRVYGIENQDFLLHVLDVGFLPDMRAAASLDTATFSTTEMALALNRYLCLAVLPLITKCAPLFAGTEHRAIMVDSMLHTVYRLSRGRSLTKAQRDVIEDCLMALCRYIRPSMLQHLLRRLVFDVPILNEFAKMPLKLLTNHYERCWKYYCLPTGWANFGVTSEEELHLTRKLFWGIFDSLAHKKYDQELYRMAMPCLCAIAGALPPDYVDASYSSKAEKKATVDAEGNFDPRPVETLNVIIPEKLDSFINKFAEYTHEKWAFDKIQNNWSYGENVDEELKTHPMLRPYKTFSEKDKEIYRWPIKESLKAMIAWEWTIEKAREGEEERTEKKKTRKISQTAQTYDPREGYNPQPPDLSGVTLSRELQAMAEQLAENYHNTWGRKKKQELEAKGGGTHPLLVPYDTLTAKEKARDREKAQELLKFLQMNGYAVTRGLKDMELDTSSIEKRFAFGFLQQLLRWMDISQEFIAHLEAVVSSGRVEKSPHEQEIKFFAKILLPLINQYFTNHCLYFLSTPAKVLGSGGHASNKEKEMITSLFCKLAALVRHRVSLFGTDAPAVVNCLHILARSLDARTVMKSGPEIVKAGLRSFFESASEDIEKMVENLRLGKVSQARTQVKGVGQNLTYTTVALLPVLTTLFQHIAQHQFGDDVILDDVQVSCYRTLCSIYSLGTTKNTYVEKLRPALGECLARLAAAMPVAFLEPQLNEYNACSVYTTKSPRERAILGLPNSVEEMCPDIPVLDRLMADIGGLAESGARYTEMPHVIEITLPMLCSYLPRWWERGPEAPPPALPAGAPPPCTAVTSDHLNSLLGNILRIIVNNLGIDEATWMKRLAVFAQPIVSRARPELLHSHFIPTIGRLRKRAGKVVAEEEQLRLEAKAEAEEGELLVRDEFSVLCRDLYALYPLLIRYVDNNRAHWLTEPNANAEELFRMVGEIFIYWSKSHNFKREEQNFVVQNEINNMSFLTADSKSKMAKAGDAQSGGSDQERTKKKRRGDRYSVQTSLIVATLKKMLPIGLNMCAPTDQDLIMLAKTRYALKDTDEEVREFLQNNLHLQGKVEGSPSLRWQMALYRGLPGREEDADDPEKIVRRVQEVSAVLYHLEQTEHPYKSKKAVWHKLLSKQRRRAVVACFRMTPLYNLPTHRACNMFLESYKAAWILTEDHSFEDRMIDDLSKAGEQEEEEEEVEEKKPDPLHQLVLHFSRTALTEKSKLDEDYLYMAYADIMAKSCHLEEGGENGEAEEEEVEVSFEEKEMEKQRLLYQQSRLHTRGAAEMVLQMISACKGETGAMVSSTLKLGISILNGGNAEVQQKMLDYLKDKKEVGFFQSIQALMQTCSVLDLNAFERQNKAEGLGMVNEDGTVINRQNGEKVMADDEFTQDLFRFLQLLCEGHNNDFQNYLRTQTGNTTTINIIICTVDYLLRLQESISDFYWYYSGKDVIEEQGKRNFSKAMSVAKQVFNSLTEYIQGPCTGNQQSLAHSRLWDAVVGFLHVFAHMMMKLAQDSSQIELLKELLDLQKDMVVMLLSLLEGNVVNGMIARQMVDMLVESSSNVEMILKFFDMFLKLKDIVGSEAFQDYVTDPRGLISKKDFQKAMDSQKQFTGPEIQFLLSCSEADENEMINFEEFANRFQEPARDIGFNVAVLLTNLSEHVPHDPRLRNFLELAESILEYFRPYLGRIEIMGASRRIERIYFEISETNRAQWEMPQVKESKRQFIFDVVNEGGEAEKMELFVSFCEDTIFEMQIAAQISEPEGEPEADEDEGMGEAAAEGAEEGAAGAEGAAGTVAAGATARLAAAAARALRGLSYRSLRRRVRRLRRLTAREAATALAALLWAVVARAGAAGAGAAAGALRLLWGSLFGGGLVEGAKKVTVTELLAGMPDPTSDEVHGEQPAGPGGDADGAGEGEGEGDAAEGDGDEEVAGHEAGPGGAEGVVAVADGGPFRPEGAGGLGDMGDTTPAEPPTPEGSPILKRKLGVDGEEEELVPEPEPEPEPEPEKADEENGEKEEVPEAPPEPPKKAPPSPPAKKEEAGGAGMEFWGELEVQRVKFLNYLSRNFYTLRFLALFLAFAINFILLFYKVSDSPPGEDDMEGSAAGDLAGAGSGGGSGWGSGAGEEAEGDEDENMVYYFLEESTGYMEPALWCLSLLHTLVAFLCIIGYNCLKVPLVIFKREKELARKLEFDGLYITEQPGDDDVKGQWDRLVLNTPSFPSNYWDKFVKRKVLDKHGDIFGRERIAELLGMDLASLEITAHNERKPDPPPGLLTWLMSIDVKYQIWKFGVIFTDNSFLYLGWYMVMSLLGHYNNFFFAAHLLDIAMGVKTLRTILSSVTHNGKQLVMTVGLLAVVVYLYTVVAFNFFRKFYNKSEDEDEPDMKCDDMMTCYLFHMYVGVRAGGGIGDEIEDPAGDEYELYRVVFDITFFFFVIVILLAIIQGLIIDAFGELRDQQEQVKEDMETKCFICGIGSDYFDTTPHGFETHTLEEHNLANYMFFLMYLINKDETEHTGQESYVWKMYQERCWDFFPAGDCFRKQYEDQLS
T2 sequence (P11716 whole entry, canonical isoform): as the sequence (P11716 whole entry) above

## imperatoxin-A (GDCLPHLKRCKADNDCCGKKCKRRGTNAEKRCR; not fully specified; ends and bridges not checked; UniProt P59868 1-33, looked up) [IpTxA, member of the calcin family of scorpion derived ICK toxins, recombinant (SUMO fusion), reference compound]
[1]
  reversibility of activity: reversible
[2]
  mean rel Po: 1.9
[3]; 10 nM
  efficiency to increase SR Ca2+ leakage (order): Xt3a > Xt3a-D1 ~ IpTxA > Xt3a-D2
[3]; 10 nM peptide in leak solution, 1 min leak, mean ± SD, control leak 18 ± 7%
  depletion of [CaT]SR: 55 ± 18%
[3]; 10 nM peptide, 1 min leak, relative to Pre, fiber 2 of column
  Relative amount of total Ca2+ left in the SR ([CaT]SR): 17.9
[3]; 10 nM peptide, 1 min leak, relative to Pre, fiber 3 of column
  Relative amount of total Ca2+ left in the SR ([CaT]SR): 33.5
[3]; 10 nM peptide, 1 min leak, relative to Pre, fiber 4 of column
  Relative amount of total Ca2+ left in the SR ([CaT]SR): 46.4
[3]; 10 nM peptide, 1 min leak, relative to Pre, fiber 5 of column
  Relative amount of total Ca2+ left in the SR ([CaT]SR): 44.7
[3]; 10 nM peptide, 1 min leak, relative to Pre, fiber 6 of column
  Relative amount of total Ca2+ left in the SR ([CaT]SR): 44.3
[3]; 10 nM peptide, 1 min leak, relative to Pre, fiber 7 of column
  Relative amount of total Ca2+ left in the SR ([CaT]SR): 51.6
[3]; 10 nM peptide, 1 min leak, relative to Pre, fiber 8 of column
  Relative amount of total Ca2+ left in the SR ([CaT]SR): 48.5
[3]; 10 nM peptide, 1 min leak, relative to Pre, fiber 9 of column
  Relative amount of total Ca2+ left in the SR ([CaT]SR): 70.6
[3]; 10 nM peptide, 1 min leak, relative to Pre, fiber 10 of column
  Relative amount of total Ca2+ left in the SR ([CaT]SR): 71.5
[3]; 10 nM peptide, 1 min leak, relative to Pre, mean (n = 13 Xt3a, n = 10 others)
  Relative amount of total Ca2+ left in the SR ([CaT]SR), mean: 44.8
[3]; 10 nM peptide, 1 min leak, relative to [CaT]SR before the leak (Pre), fiber 1 of column
  Relative amount of total Ca2+ left in the SR ([CaT]SR): 19.4
[4]; 0.1 nM n=2, 1 nM n=3, 10 nM n=2 grouped (n=7, P=3.7E-02)
  activation of RyR1: show activation withn a similar range
[4]; isolated domains and IpTxA
  activation of RyR1 channels: potent (pM to nM) activation of RyR1 channels

B1: GSTm2: glutathione transferase reported to modulate RyR1 and RyR2 (protein, UniProt P28161 1-218, looked up)
Glutathione S-transferase Mu 2: MPMTLGYWNIRGLAHSIRLLLEYTDSSYEEKKYTMGDAPDYDRSQWLNEKFKLGLDFPNLPYLIDGTHKITQSNAILRYIARKHNLCGESEKEQIREDILENQFMDSRMQLAKLCYDPDFEKLKPEYLQALPEMLKLYSQFLGKQPWFLGDKITFVDFIAYDVLERNQVFEPSCLDAFPNLKDFISRFEGLEKISAYMKSSRFLPRPVFTKMAVWGNK
[5]
  effect on RyR1 activity: slightly increases the activity of RyR1
[6]
  effect on RyR2 activity: strongly inhibits RyR2

B2: DkTx: double-knot spider toxin with tandem repeat ICK structure, TRPV1 (peptide, UniProt P0CH43 1-79, looked up)
Tau-theraphotoxin-Hs1a: DCAKEGEVCSWGKKCCDLDNFYCPMEFIPHCKKYKPYVPVTTNCAKEGEVCGWGSKCCHGLDCPLAFIPYCEKYRGRND
[7]
  avidity on washout: high avidity, evidenced by persistent activity during washout
